Results taken from US6426405B2, “Neurotransmitter transporter SC6” (SmithKline Beecham P.L.C., priority 1998, dated 2002).

Target: T1, SC6 (GlyT-2 transporter) (Homo sapiens, UniProt Q9Y345)
T1 sequence (Q9Y345 1-797 F124S/A162G/Q184R/D463N/I735T/V751A): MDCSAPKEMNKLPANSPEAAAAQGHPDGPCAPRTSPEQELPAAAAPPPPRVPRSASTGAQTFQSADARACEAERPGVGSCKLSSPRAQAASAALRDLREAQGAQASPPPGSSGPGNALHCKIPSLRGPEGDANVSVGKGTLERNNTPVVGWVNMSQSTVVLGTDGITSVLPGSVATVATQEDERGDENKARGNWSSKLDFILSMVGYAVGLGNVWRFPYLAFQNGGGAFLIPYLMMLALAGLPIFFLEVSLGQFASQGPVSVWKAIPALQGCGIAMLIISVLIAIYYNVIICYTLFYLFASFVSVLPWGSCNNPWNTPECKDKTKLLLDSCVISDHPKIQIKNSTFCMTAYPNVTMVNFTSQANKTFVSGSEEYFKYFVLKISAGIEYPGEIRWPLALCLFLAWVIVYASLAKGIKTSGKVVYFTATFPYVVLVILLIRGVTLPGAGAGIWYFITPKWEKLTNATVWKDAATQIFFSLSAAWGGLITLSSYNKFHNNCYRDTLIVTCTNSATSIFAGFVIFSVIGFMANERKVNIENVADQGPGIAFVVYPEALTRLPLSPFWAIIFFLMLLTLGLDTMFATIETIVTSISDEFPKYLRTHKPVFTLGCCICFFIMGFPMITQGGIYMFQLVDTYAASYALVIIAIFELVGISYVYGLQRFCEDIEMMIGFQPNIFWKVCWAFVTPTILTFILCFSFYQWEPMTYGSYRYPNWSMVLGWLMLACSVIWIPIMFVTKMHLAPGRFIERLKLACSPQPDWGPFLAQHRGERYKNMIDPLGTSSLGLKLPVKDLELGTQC
Assay: [3H]-glycine uptake assay in HEK-293 cells transiently transfected with SC6
Conditions: 1 mM test substance, 1 μM [3H]-glycine, alanine (5 mM) present, HEK-293 cells transfected with SC6, 37° C.

SMILES | effect on [3H]-glycine uptake
NCC(=O)O [glycine] | almost totally blocked
CNCC(=O)O [sarcosine] | not significantly affected
